Experimental data as given in patent US5068349A, “Mitomycin derivatives” (Kyowa Hakko Kogyo Co., Ltd., priority 1988, dated 1991).
In brackets after ≈: the same amount, converted by molar mass.

Tests used:
[1] = test system: Staphylococcus aureus ATCC 6538P; assay: minimum growth inhibitory concentration, agar dilution method (SA); assay type: cell-based; settings: ATCC6538P, pH 7.0
Method: (§1) The antibacterial activity of Compounds (I) against various bacteria [minimum growth inhibitory concentration (μ g/ml)] is shown in Table 3.
(§2) The minimum growth inhibitory concentration was determined by the agar dilution method at pH 7.0. In the table, names of bacteria are shown by the following symbols.
SA : Staphylococcus aureus ATCC 6538P

[2] = test system: Proteus vulgaris ATCC 6897; assay: minimum growth inhibitory concentration, agar dilution method (PV); assay type: cell-based; settings: ATCC6897, pH 7.0
Method: as §1, §2
PV : Proteus vulgaris ATCC 6897

[3] = test system: Streptococcus faecium ATCC 10541; assay: minimum growth inhibitory concentration, agar dilution method (SF); assay type: cell-based; settings: Enterococcus faecium, ATCC10541, pH 7.0
Method: as §1, §2
SF : Streptococcus faecium ATCC 10541

[4] = test system: Klebsiella pneumoniae ATCC 10031; assay: minimum growth inhibitory concentration, agar dilution method (KP); assay type: cell-based; settings: ATCC10031, pH 7.0
Method: as §1, §2
KP : Klebsiella pneumoniae ATCC 10031

[5] = Determination of LD50 (single administration, 14 days observation); settings: mouse, in vivo, ddY mice, Behrens Kaerber's method
Method: (§3) LD50 and ED50 were determined by the following methods, respectively.
(1) Determination of LD50
Five ddY mice were used for each group, and the test compounds were administered once to the mice intraperitoneally or intravenously. […] LD50 was calculated from the death rate of each group according to the Behrens Kaerber's method.

Sarcoma 180 solid tumor = assay: Determination of ED50 against Sarcoma 180 solid tumor; assay type: in vivo; settings: Mus musculus, dose at T/C 0.5 (tumor volume, 7 days after implantation), male ddY mice, 24 hours after implantation
Method: as §3
(2) Determination of ED50
Sarcoma 180 cells (5×10^6 cells) were implanted intraperitoneally into a ddY mouse and the cells were collected from the ascitic fluid of the animal 7 days after the implantation. The cells were washed once with sterilized physiological saline solution and then suspended in sterilized physiological saline solution to prepare a cell suspension containing 5×10^7 cells/ml. The suspension (0.1 ml) was subcutaneously implanted into the right axilla of male ddY mice weighing 20±2 g.
A test compound was dissolved in physiological saline solution or Tween 80-containing physiological saline solution, and 0.1 to 0.2 ml of the solution was administered to 5 mice as one group intraperitoneally or intravenously 24 hours after the implantation of the tumor cells.
The anti-tumor activity of the test compound was determined by measuring the major axis (a) and the minor axis (b) of the tumor 7 days after the implantation, calculating a value of (a)×(b)^2 /2 corresponding to the volume of the tumor, and calculating a ratio T/C of the volume (T) of the group which received the test compound to the volume (C) of the control group which received no test compound T/C at each dose given was plotted on a graph in which T/C is shown by an ordinary scale on the vertical axis and a dose is shown by a logarithmic scale on the abscissa. The relationship between the dose and T/C was determined to be a straight line by the least-squares method.

[6] = Sarcoma-180, ip, 168 h, intraperitoneal
[7] = Sarcoma-180, 168 h, intravenous

SMILES	MIC [1]	MIC [2]	MIC [3]	MIC [4]	LD50 at 336 h ([5]; ip, intraperitoneal)	ED50 (Sarcoma 180 solid tumor; [6])	LD50 at 336 h ([5]; intravenous)	ED50 (Sarcoma 180 solid tumor; [7])
COCC1=C(N)C(=O)C2=C(C1=O)N1CC3C(N3C)C1(OC)C2COC(N)=O (stereo not drawn) [Compound 1, 6-Demethyl-6-methoxymethylporfiromycin]	0.31 µg/mL (≈ 0.819 µM)	> 40 µg/mL	0.63 µg/mL (≈ 1.66 µM)	0.63 µg/mL (≈ 1.66 µM)				
COCC1=C(N)C(=O)C2=C(C1=O)N1CC3NC3C1(OC)C2COC(N)=O (stereo not drawn) [Compound 2, 6-Demethyl-6-methoxymethylmitomycin C]	1.3 µg/mL (≈ 3.57 µM)	1.3 µg/mL (≈ 3.57 µM)	1.3 µg/mL (≈ 3.57 µM)	0.31 µg/mL (≈ 0.851 µM)	75 mg/kg	34 mg/kg		
COCC1=C(OC)C(=O)C2=C(C1=O)N1CC3NC3C1(OC)C2COC(N)=O (stereo not drawn) [Compound 4, 6-Demethyl-6-methoxymethylmitomycin A]	10 µg/mL (≈ 26.4 µM)	2.5 µg/mL (≈ 6.59 µM)	10 µg/mL (≈ 26.4 µM)	0.63 µg/mL (≈ 1.66 µM)				
CCCCOCC1=C(N)C(=O)C2=C(C1=O)N1CC3NC3C1(OC)C2COC(N)=O (stereo not drawn) [Compound 6, 6-Demethyl-6-n-butoxymethylmitomycin C]	0.63 µg/mL (≈ 1.55 µM)		0.31 µg/mL (≈ 0.763 µM)	5 µg/mL (≈ 12.3 µM)	> 50 mg/kg	38 mg/kg		
COC12C(COC(N)=O)C3=C(C(=O)C(COCc4ccccc4)=C(N)C3=O)N1CC1NC12 (stereo not drawn) [Compound 7, 6-Demethyl-6-benzyloxymethylmitomycin C]	0.63 µg/mL (≈ 1.43 µM)		0.16 µg/mL (≈ 0.363 µM)	5 µg/mL (≈ 11.4 µM)	60 mg/kg	25.2 mg/kg		
COC12C(COC(N)=O)C3=C(C(=O)C(COC(C)C)=C(N)C3=O)N1CC1NC12 (stereo not drawn) [Compound 8, 6-Demethyl-6-isopropoxymethylmitomycin C]	0.63 µg/mL (≈ 1.61 µM)	40 µg/mL (≈ 102 µM)	0.31 µg/mL (≈ 0.79 µM)	0.63 µg/mL (≈ 1.61 µM)			> 50 mg/kg	14.9 mg/kg
COC12C(COC(N)=O)C3=C(C(=O)C(CO)=C(N)C3=O)N1CC1NC12 (stereo not drawn) [Compound 10, 6-Demethyl-6-hydroxymethylmitomycin C]	5 µg/mL (≈ 14.3 µM)	5 µg/mL (≈ 14.3 µM)	10 µg/mL (≈ 28.5 µM)	1.3 µg/mL (≈ 3.71 µM)				
CCSCC1=C(N)C(=O)C2=C(C1=O)N1CC3NC3C1(OC)C2COC(N)=O (stereo not drawn) [Compound 11, 6-Demethyl-6-ethylthiomethylmitomycin C]	0.039 µg/mL (≈ 0.0989 µM)	0.16 µg/mL (≈ 0.406 µM)	0.31 µg/mL (≈ 0.786 µM)	1.3 µg/mL (≈ 3.3 µM)	30 mg/kg	11.6 mg/kg		
COC(=O)CCSCC1=C(N)C(=O)C2=C(C1=O)N1CC3NC3C1(OC)C2COC(N)=O (stereo not drawn) [Compound 12, 6-Demethyl-6-(2-methoxycarbonylethylthio)methylmitomycin C]	0.31 µg/mL (≈ 0.685 µM)	1.3 µg/mL (≈ 2.87 µM)	0.63 µg/mL (≈ 1.39 µM)	0.31 µg/mL (≈ 0.685 µM)				
COC12C(COC(N)=O)C3=C(C(=O)C(CSCCO)=C(N)C3=O)N1CC1NC12 (stereo not drawn) [Compound 13, 6-Demethyl-6-(2-hydroxyethylthio)methylmitomycin C]	10 µg/mL (≈ 24.4 µM)	40 µg/mL (≈ 97.5 µM)	10 µg/mL (≈ 24.4 µM)	5 µg/mL (≈ 12.2 µM)				
CCCCCCCCCCCCSCC1=C(N)C(=O)C2=C(C1=O)N1CC3NC3C1(OC)C2COC(N)=O (stereo not drawn) [Compound 14, 6-Demethyl-6-dodecylthiomethylmitomycin C]	0.2 µg/mL (≈ 0.374 µM)	> 50 µg/mL	0.39 µg/mL (≈ 0.729 µM)					
COC12C(COC(N)=O)C3=C(C(=O)C(CSC(C)C)=C(N)C3=O)N1CC1NC12 (stereo not drawn) [Compound 16, 6-Demethyl-6-isopropylthiomethylmitomycin C]	0.16 µg/mL (≈ 0.392 µM)	10 µg/mL (≈ 24.5 µM)	0.078 µg/mL (≈ 0.191 µM)	1.3 µg/mL (≈ 3.18 µM)			37.5 mg/kg	8.4 mg/kg
COC12C(COC(N)=O)C3=C(C(=O)C(CSc4ccccc4)=C(N)C3=O)N1CC1NC12 (stereo not drawn) [Compound 17, 6-Demethyl-6-phenylthiomethylmitomycin C]	20 µg/mL (≈ 45.2 µM)	40 µg/mL (≈ 90.4 µM)	0.31 µg/mL (≈ 0.701 µM)	10 µg/mL (≈ 22.6 µM)			50 mg/kg	6.1 mg/kg
COC12C(COC(N)=O)C3=C(C(=O)C(CSCc4ccccc4)=C(N)C3=O)N1CC1NC12 (stereo not drawn) [Compound 18, 6-Demethyl-6-benzylthiomethylmitomycin C]	0.16 µg/mL (≈ 0.35 µM)	40 µg/mL (≈ 87.6 µM)	0.039 µg/mL (≈ 0.0854 µM)	5 µg/mL (≈ 11 µM)			56.6 mg/kg	20.2 mg/kg
COC12C(COC(N)=O)C3=C(C(=O)C4=C(NCCSC4)C3=O)N1CC1NC12 (stereo not drawn) [Compound 20]	2.5 µg/mL (≈ 6.37 µM)	40 µg/mL (≈ 102 µM)	5 µg/mL (≈ 12.7 µM)	10 µg/mL (≈ 25.5 µM)			22.5 mg/kg	12.6 mg/kg
